Patent publication US20250163038A1, “CBL-B MODULATORS AND USES THEREOF” (Nimbus Clio, Inc., priority 2021, published 2025)

Key:
[1] = molecular target: T1, Recombinant human c-Cbl (aa 47-435) (Homo sapiens, UniProt P22681); assay: c-Cbl Biochemical Assay (TR-FRET); settings: hc-Cbl Biochemical Assay (TR-FRET); read-out: TR-FRET hcCbl IC50
T1 sequence (P22681 47-435): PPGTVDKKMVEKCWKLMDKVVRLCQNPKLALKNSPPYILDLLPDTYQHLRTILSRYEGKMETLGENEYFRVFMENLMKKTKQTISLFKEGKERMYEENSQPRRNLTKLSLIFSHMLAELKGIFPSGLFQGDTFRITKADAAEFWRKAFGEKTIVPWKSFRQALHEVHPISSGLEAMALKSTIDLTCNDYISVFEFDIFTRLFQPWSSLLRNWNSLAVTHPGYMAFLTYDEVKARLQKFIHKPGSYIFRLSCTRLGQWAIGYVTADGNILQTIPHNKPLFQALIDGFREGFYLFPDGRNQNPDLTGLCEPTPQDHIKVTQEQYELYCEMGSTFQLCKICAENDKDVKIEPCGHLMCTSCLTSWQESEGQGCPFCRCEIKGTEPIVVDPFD

[2] = molecular target: Recombinant human Cbl-b (aa 36-427) (Homo sapiens, UniProt Q13191); assay: Cbl-b Biochemical Assay (TR-FRET); settings: read-out: TR-FRET hCbl-b IC50
Chain of Recombinant human Cbl-b (aa 36-427) (Q13191 36-427): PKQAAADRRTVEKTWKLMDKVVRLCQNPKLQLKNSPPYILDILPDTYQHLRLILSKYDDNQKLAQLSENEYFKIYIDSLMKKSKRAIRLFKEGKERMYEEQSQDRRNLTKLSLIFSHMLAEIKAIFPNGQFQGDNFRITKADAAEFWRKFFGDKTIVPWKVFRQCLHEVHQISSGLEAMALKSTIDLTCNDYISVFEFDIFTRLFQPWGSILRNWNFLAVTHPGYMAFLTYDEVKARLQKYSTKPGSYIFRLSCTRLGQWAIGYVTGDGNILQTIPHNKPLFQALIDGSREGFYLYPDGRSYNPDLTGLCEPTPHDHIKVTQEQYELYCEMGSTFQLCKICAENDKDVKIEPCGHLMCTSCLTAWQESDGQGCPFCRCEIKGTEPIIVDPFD

**Q.** What does the source list for `Cn1cnnc1CC1(c2cccc(-c3cc(C(F)(F)F)c[nH]c3=O)c2)COC1` [ABO-1, 3-(3-(3-((4-Methyl-4H-1,2,4-triazol-3-yl)methyl)oxetan-3-yl)phenyl)-5-(trifluoromethyl)pyridin-2(1H)-one]?
**A.** IC50 [1]: 10 to 50 µM; IC50 [2]: 0.2 to 1 µM

**Q.** Which results are given for `Cn1cnnc1CC1(c2cccc(-c3nc4cc(C(=O)N5CC[C@H](O)C5)cc(C(F)(F)F)c4[nH]3)c2)COC1` [ABR-2, (S)-(3-Hydroxypyrrolidin-1-yl)(2-(3-(3-((4-methyl-4H-1,2,4-triazol-3-yl)methyl)oxetan-3-yl)phenyl)-7-(trifluoromethyl)-1H-benzo[d]imidazol-5-yl)methanone]?
**A.** IC50 [1]: 1 to 10 µM; IC50 [2]: < 0.2 µM

**Q.** Which results are given for `Cn1cnnc1CC1(c2cccc(-c3nc4cc(C(=O)N5CC[C@@H](O)C5)cc(C(F)(F)F)c4[nH]3)c2)COC1` [ABS-2, (R)-(3-Hydroxypyrrolidin-1-yl)(2-(3-(3-((4-methyl-4H-1,2,4-triazol-3-yl)methyl)oxetan-3-yl)phenyl)-7-(trifluoromethyl)-1H-benzo[d]imidazol-5-yl)methanone]?
**A.** IC50 [1]: 10 to 50 µM; IC50 [2]: 10 to 50 µM

**Q.** For `Cn1cnnc1CC1(c2cccc(-c3nc4cccc(C(F)(F)F)c4s3)c2)COC1` [ABT-2, 2-(3-(3-((4-Methyl-4H-1,2,4-triazol-3-yl)methyl)oxetan-3-yl)phenyl)-7-(trifluoromethyl)benzo[d]thiazole], which IC50 [1] is on record?
**A.** Its IC50 is 10 to 50 µM.

**Q.** And the IC50 [2]?
**A.** Its IC50 is 1 to 10 µM.

**Q.** Which IC50 [1] does the source give for `Cn1cnnc1-c1ccccc1-c1cccc(-c2nc3cccc(C(F)(F)F)n3n2)c1` [ABU-2, 2-(2′-(4-Methyl-4H-1,2,4-triazol-3-yl)-[1,1′-biphenyl]-3-yl)-5-(trifluoromethyl)-[1,2,4]triazolo[1,5-a]pyridine] here?
**A.** Its IC50 is 10 to 50 µM.

**Q.** And the IC50 [2]?
**A.** Its IC50 is 10 to 50 µM.

**Q.** With `Cn1cnnc1-c1ccccc1-c1cccc(-c2cc(C(F)(F)F)c[nH]c2=O)c1` [ABV-1, 3-(2′-(4-Methyl-4H-1,2,4-triazol-3-yl)-[1,1′-biphenyl]-3-yl)-5-(trifluoromethyl)pyridin-2(1H)-one] as the compound, how does the IC50 [1] read?
**A.** The IC50 was 10 to 50 µM.

**Q.** And the IC50 [2]?
**A.** Its IC50 is 10 to 50 µM.

**Q.** Which IC50 [1] does the source give for `Cn1cnnc1CC1(c2cccc(-c3cc(C4CC4)c[nH]c3=O)c2)COC1` [ABX-3, 5-Cyclopropyl-3-(3-(3-((4-methyl-4H-1,2,4-triazol-3-yl)methyl)oxetan-3-yl)phenyl)pyridin-2(1H)-one] here?
**A.** Its IC50 is 10 to 50 µM.

**Q.** And the IC50 [2]?
**A.** Its IC50 is 10 to 50 µM.

**Q.** `C[C@H](Cc1nncn1C)c1cccc(-c2nc3cccc(C(F)(F)F)n3n2)c1` [ACA-2, (R)-2-(3-(1-(4-methyl-4H-1,2,4-triazol-3-yl)propan-2-yl)phenyl)-5-(trifluoromethyl)-[1,2,4]triazolo[1,5-a]pyridine] was tested. Which IC50 [1] did it give?
**A.** The IC50 was 10 to 50 µM.

**Q.** What about the IC50 [2] of the same compound?
**A.** The IC50 was 10 to 50 µM.

**Q.** With `Cn1cnnc1CC1(c2cccc(-c3nc4cc(CN5CC[C@@H](O)C5)cc(C(F)(F)F)c4[nH]3)c2)COC1` [ACB-1, (R)-1-((2-(3-(3-((4-Methyl-4H-1,2,4-triazol-3-yl)methyl)oxetan-3-yl)phenyl)-7-(trifluoromethyl)-1H-benzo[d]imidazol-5-yl)methyl)pyrrolidin-3-ol] as the compound, how does the IC50 [1] read?
**A.** Its IC50 is 10 to 50 µM.

**Q.** And the IC50 [2]?
**A.** Its IC50 is 0.2 to 1 µM.

**Q.** Which results are given for `Cn1cnnc1CC1(c2cccc(-c3nc4cc(CNc5nccn5C)cc(C(F)(F)F)c4[nH]3)c2)COC1` [ACC-1, 1-Methyl-N-((2-(3-(3-((4-methyl-4H-1,2,4-triazol-3-yl)methyl)oxetan-3-yl)phenyl)-7-(trifluoromethyl)-1H-benzo[d]imidazol-5-yl)methyl)-1H-imidazol-2-amine]?
**A.** IC50 [1]: 1 to 10 µM; IC50 [2]: 0.2 to 1 µM

**Q.** `Cn1cnnc1CC1(c2cccc(-c3cc(C(F)(F)F)cn(CCO)c3=O)c2)COC1` [ACG-3, 1-(2-Hydroxyethyl)-3-(3-(3-((4-methyl-4H-1,2,4-triazol-3-yl)methyl)oxetan-3-yl)phenyl)-5-(trifluoromethyl)pyridin-2(1H)-one] was tested. Which IC50 [1] did it give?
**A.** Its IC50 is 10 to 50 µM.

**Q.** What about the IC50 [2] of the same compound?
**A.** The IC50 was 0.2 to 1 µM.

**Q.** Which IC50 [1] does the source give for `Cn1cnnc1CC1(c2cccc(-c3nc4cc(OCCN5CCCC5)cc(C(F)(F)F)c4[nH]3)c2)COC1` [ACJ-5, 2-(3-(3-((4-Methyl-4H-1,2,4-triazol-3-yl)methyl)oxetan-3-yl)phenyl)-5-(2-(pyrrolidin-1-yl)ethoxy)-7-(trifluoromethyl)-1H-benzo[d]imidazole] here?
**A.** The IC50 was 10 to 50 µM.

**Q.** What about the IC50 [2] of the same compound?
**A.** The IC50 was 10 to 50 µM.

**Q.** With `Cn1cnnc1CC1(c2cccc(-c3nc4cc(CN5CC[C@H](O)C5)cc(C(F)(F)F)c4[nH]3)c2)COC1` [ACL-1, (S)-1-((2-(3-(3-((4-Methyl-4H-1,2,4-triazol-3-yl)methyl)oxetan-3-yl)phenyl)-7-(trifluoromethyl)-1H-benzo[d]imidazol-5-yl)methyl)pyrrolidin-3-ol] as the compound, how does the IC50 [1] read?
**A.** The IC50 was 1 to 10 µM.

**Q.** What about the IC50 [2] of the same compound?
**A.** The IC50 was 0.2 to 1 µM.

**Q.** Which IC50 [1] does the source give for `Cn1cnnc1CC1(c2cccc(-c3nc4cccc(C(F)(F)F)c4o3)c2)COC1` [ACO-1, 2-(3-(3-((4-Methyl-4H-1,2,4-triazol-3-yl)methyl)oxetan-3-yl)phenyl)-7-(trifluoromethyl)benzo[d]oxazole] here?
**A.** The IC50 was 10 to 50 µM.

**Q.** And the IC50 [2]?
**A.** The IC50 was 0.2 to 1 µM.

**Q.** How did the IC50 [1] turn out when `CCNc1cc(-c2c(-c3nncn3C)cnn2C)cc(-c2cc(C(F)(F)F)c[nH]c2=O)n1` [ACQ-3, 6-(Ethylamino)-4-(1-methyl-4-(4-methyl-4H-1,2,4-triazol-3-yl)-1H-pyrazol-5-yl)-5′-(trifluoromethyl)-[2,3′-bipyridin]-2′(1′H)-one] was run?
**A.** Its IC50 is 1 to 10 µM.

**Q.** And the IC50 [2]?
**A.** Its IC50 is 0.2 to 1 µM.

**Q.** `Cn1cnnc1-c1cnn(C)c1-c1cc(Cl)nc(-c2cc(C(F)(F)F)c[nH]c2=O)c1` [ACR-3, 6-Chloro-4-(1-methyl-4-(4-methyl-4H-1,2,4-triazol-3-yl)-1H-pyrazol-5-yl)-5′-(trifluoromethyl)-[2,3′-bipyridin]-2′(1′H)-one] was tested. Which IC50 [1] did it give?
**A.** Its IC50 is 10 to 50 µM.

**Q.** What about the IC50 [2] of the same compound?
**A.** Its IC50 is 10 to 50 µM.

**Q.** For `CCNc1cc(-c2c(-c3nncn3C)cnn2C)cc(-c2nc3cccc(C(F)(F)F)c3s2)n1` [ACU-2, N-Ethyl-4-[2-methyl-4-(4-methyl-1,2,4-triazol-3-yl)-pyrazol-3-yl]-6-[7-(trifluoromethyl)-1,3-benzothiazol-2-yl]-pyridin-2-amine], which IC50 [1] is on record?
**A.** Its IC50 is 10 to 50 µM.

**Q.** What about the IC50 [2] of the same compound?
**A.** Its IC50 is 10 to 50 µM.

**Q.** With `COC(=O)c1cc(C(F)(F)F)c2oc(-c3cccc([C@]4(c5nncn5C)C[C@@H](C)C4)c3)nc2c1` [ADC-3, Methyl 2-(3-((1s,3s)-3-methyl-1-(4-methyl-4H-1,2,4-triazol-3-yl)cyclobutyl)phenyl)-7-(trifluoromethyl)benzo[d]oxazole-5-carboxylate] as the compound, how does the IC50 [1] read?
**A.** The IC50 was 10 to 50 µM.

**Q.** What about the IC50 [2] of the same compound?
**A.** Its IC50 is 1 to 10 µM.

**Q.** Which IC50 [1] does the source give for `Cn1cnnc1[C@]1(c2cccc(-c3nc4cc(CO)cc(C(F)(F)F)c4o3)c2)C[C@H](C)C1` [ADD-1, (2-(3-((1s,3s)-3-Methyl-1-(4-methyl-4H-1,2,4-triazol-3-yl)cyclobutyl)phenyl)-7-(trifluoromethyl)benzo[d]oxazol-5-yl)methanol] here?
**A.** Its IC50 is 1 to 10 µM.

**Q.** What about the IC50 [2] of the same compound?
**A.** The IC50 was 0.2 to 1 µM.

**Q.** Which results are given for `COC(=O)c1ccc2oc(-c3cccc(-c4ccc(Cl)cc4-c4nncn4C)c3)nc2c1` [ADJ-2, Methyl 2-[4′-chloro-2′-(4-methyl-1,2,4-triazol-3-yl)-[1,1′-biphenyl]-3-yl]-1,3-benzoxazole-5-carboxylate]?
**A.** IC50 [1]: 1 to 10 µM; IC50 [2]: 1 to 10 µM

**Q.** `Cn1cnnc1-c1cc(F)ccc1-c1cc(Cl)nc(-c2nc3cc(CO)cc(C(F)(F)F)c3[nH]2)c1` [ADX-3, (2-{6-Chloro-4-[4-fluoro-2-(4-methyl-1,2,4-triazol-3-yl)phenyl]pyridin-2-yl}-7-(trifluoromethyl)-1H-1,3-benzodiazol-5-yl)methanol] was tested. Which IC50 [1] did it give?
**A.** The IC50 was 10 to 50 µM.

**Q.** And the IC50 [2]?
**A.** Its IC50 is 10 to 50 µM.

**Q.** Which results are given for `COC(=O)c1cc(OC)c2oc(-c3cccc([C@]4(c5nncn5C)C[C@@H](C)C4)c3)nc2c1` [AEA-1, Methyl 7-methoxy-2-{3-[(1r,3s)-3-methyl-1-(4-methyl-1,2,4-triazol-3-yl)cyclobutyl]phenyl}-1,3-benzoxazole-5-carboxylate]?
**A.** IC50 [1]: 10 to 50 µM; IC50 [2]: 10 to 50 µM

**Q.** What does the source list for `COc1cc(CO)cc2nc(-c3cccc([C@]4(c5nncn5C)C[C@@H](C)C4)c3)oc12` [AEB-1, (7-Methoxy-2-{3-[(1r,3s)-3-methyl-1-(4-methyl-1,2,4-triazol-3-yl)cyclobutyl]phenyl}-1,3-benzoxazol-5-yl)methanol]?
**A.** IC50 [1]: 1 to 10 µM; IC50 [2]: 1 to 10 µM

**Q.** How did the IC50 [1] turn out when `COC(=O)c1ccc2[nH]c(-c3cc(-c4ccc(F)cc4-c4nncn4C)cc(C4CC4)n3)nc2c1` [AED-3, Methyl 2-(6-cyclopropyl-4-(4-fluoro-2-(4-methyl-4H-1,2,4-triazol-3-yl)phenyl)pyridin-2-yl)-1H-benzo[d]imidazole-5-carboxylate] was run?
**A.** Its IC50 is 10 to 50 µM.

**Q.** What about the IC50 [2] of the same compound?
**A.** Its IC50 is 10 to 50 µM.

**Q.** How did the IC50 [1] turn out when `Cn1cnnc1-c1cc(F)ccc1-c1cc(-c2nc3cc(CO)ccc3[nH]2)nc(C2CC2)c1` [AEE-1, (2-(6-Cyclopropyl-4-(4-fluoro-2-(4-methyl-4H-1,2,4-triazol-3-yl)phenyl)pyridin-2-yl)-1H-benzo[d]imidazol-5-yl)methanol] was run?
**A.** The IC50 was 1 to 10 µM.

**Q.** What about the IC50 [2] of the same compound?
**A.** Its IC50 is 1 to 10 µM.

**Q.** Which results are given for `CCNc1cc(-c2ccc(F)cc2-c2nncn2C)cc(-c2nc3cccc(C(F)(F)F)c3o2)n1` [AEJ-4, N-Ethyl-4-[4-fluoro-2-(4-methyl-1,2,4-triazol-3-yl)phenyl]-6-[7-(trifluoromethyl)-1,3-benzoxazol-2-yl]pyridin-2-amine]?
**A.** IC50 [1]: 1 to 10 µM; IC50 [2]: 0.2 to 1 µM

**Q.** What does the source list for `Cn1cnnc1-c1cc(F)ccc1-c1cccc(-c2nc3cc(CO)ccc3o2)c1` [AJ-3, (2-(4′-Fluoro-2′-(4-methyl-4H-1,2,4-triazol-3-yl)-[1,1′-biphenyl]-3-yl)benzo[d]oxazol-5-yl)methanol]?
**A.** IC50 [1]: 10 to 50 µM; IC50 [2]: 10 to 50 µM

**Q.** How did the IC50 [1] turn out when `Cn1cnnc1-c1cc(F)ccc1-c1cccc(-c2nc3ccccc3o2)c1` [AR-2, 2-(4′-Fluoro-2′-(4-methyl-4H-1,2,4-triazol-3-yl)-[1,1′-biphenyl]-3-yl)benzo[d]oxazole] was run?
**A.** The IC50 was 10 to 50 µM.

**Q.** And the IC50 [2]?
**A.** The IC50 was 10 to 50 µM.
